Data as given in PubChem BioAssay AID344 (DTP/NCI, 2004).
Several values for one entry are separate records, joined by “and”; a condition that tells them apart may be missing. Equal entries are not always repeated. Toxic doses and inconclusive results are not listed.

Test system: mice, LPC-1 plasma cell tumor ip, median survival T/C
Assay: NCI In Vivo Anticancer Drug Screen. Data for tumor model Lieberman Plasma Cell No. 1 (LPC-1) (intraperitoneal) in unknown mice
Details: endpoint: median survival time, higher = longer survival
Procedure: The antitumor activity of compounds was measured in mice bearing transplantable tumors. Survival or tumor size were measured and the results are expressed as the measurement made in the treated group (T) divided by the measurement made in the vehicle treated control group (C). The tumor model used in this assay is Lieberman Plasma Cell No. 1 (LPC-1) (intraperitoneal) in unknown mice

## N[C@@H](Cc1ccc(N(CCCl)CCCl)cc1)C(=O)O
dose: 0.57 mg/kg/injection, schedule: Q01DX024 (oral), vehicle: carboxymethylcellulose (CMC)
  T/C: 92 % of control
dose: 0.64 mg/kg/injection, schedule: Q01DX028 (sc), vehicle: saline
  T/C: 170 % of control
dose: 0.65 mg/kg/injection, schedule: Q## X024 (sc), vehicle: saline
  T/C: 96 % of control
dose: 1.07 mg/kg/injection, schedule: Q01DX028 (sc), vehicle: saline
  T/C: 107 % of control
dose: 1.08 mg/kg/injection, schedule: Q01DX008 (sc), vehicle: saline
  T/C: 96 % of control
dose: 1.08 mg/kg/injection, schedule: Q01DX009 (sc), vehicle: saline
  T/C: 103 % of control
dose: 1.08 mg/kg/injection, schedule: Q## X024 (sc), vehicle: saline
  T/C: 96 % of control
dose: 1.15 mg/kg/injection, schedule: Q01DX024 (oral), vehicle: carboxymethylcellulose (CMC)
  T/C: 100 % of control
dose: 1.7 mg/kg/injection, schedule: Q01DX028 (sc), vehicle: saline
  T/C: 182 % of control
dose: 1.8 mg/kg/injection, schedule: Q01DX005 (sc), vehicle: saline
  T/C: 381 % of control
dose: 1.8 mg/kg/injection, schedule: Q01DX008 (sc), vehicle: saline
  T/C: 100 % of control
dose: 1.8 mg/kg/injection, schedule: Q01DX009 (sc), vehicle: saline
  T/C: 103 % of control
dose: 1.8 mg/kg/injection, schedule: Q## X024 (sc), vehicle: saline
  T/C: 103 % of control
dose: 1.87 mg/kg/injection, schedule: Q01DX005 (oral), vehicle: carboxymethylcellulose (CMC)
  T/C: 88 % of control
dose: 1.87 mg/kg/injection, schedule: Q## X015 (oral), vehicle: carboxymethylcellulose (CMC)
  T/C: 190 % of control
dose: 1.9 mg/kg/injection, schedule: Q01DX005 (ip), vehicle: saline
  T/C: 161 % of control
dose: 1.9 mg/kg/injection, schedule: Q## X015 (ip), vehicle: saline
  T/C: 105 % of control
dose: 2.3 mg/kg/injection, schedule: Q01DX024 (oral), vehicle: carboxymethylcellulose (CMC)
  T/C: 91 % of control and 102 % of control
dose: 2.9 mg/kg/injection, schedule: Q01DX028 (sc), vehicle: saline
  T/C: 155 % of control
dose: 3.0 mg/kg/injection, schedule: Q01DX008 (sc), vehicle: saline
  T/C: 96 % of control
dose: 3.0 mg/kg/injection, schedule: Q01DX009 (sc), vehicle: saline
  T/C: 100 % of control
dose: 3.0 mg/kg/injection, schedule: Q01DX028 (sc), vehicle: saline
  T/C: 164 % of control and 167 % of control and 152 % of control
dose: 3.0 mg/kg/injection, schedule: Q04DX003 (sc), vehicle: saline
  T/C: 109 % of control
dose: 3.0 mg/kg/injection, schedule: Q## X024 (sc), vehicle: saline
  T/C: 96 % of control
dose: 3.75 mg/kg/injection, schedule: Q01DX005 (oral), vehicle: carboxymethylcellulose (CMC)
  T/C: 100 % of control and 104 % of control
dose: 3.75 mg/kg/injection, schedule: Q## X010 (oral), vehicle: carboxymethylcellulose (CMC)
  T/C: 95 % of control and 97 % of control
dose: 3.75 mg/kg/injection, schedule: Q## X015 (oral), vehicle: carboxymethylcellulose (CMC)
  T/C: 214 % of control and 117 % of control
dose: 3.8 mg/kg/injection, schedule: Q## X010 (ip), vehicle: saline
  T/C: 214 % of control
dose: 3.8 mg/kg/injection, schedule: Q## X015 (ip), vehicle: saline
  T/C: 202 % of control
dose: 4.0 mg/kg/injection, schedule: Q01DX028 (sc), vehicle: methylcellulose (MC)
  T/C: 97 % of control
dose: 4.5 mg/kg/injection, schedule: Q01DX024 (oral), vehicle: carboxymethylcellulose (CMC)
  T/C: 88 % of control and 102 % of control
dose: 5.0 mg/kg/injection, schedule: Q01DX008 (sc), vehicle: saline
  T/C: 96 % of control
dose: 5.0 mg/kg/injection, schedule: Q01DX009 (sc), vehicle: saline
  T/C: 103 % of control
dose: 5.0 mg/kg/injection, schedule: Q01DX024 (ip), vehicle: saline
  T/C: 111 % of control
dose: 5.0 mg/kg/injection, schedule: Q01DX028 (sc), vehicle: saline
  T/C: 104 % of control and 105 % of control
dose: 5.0 mg/kg/injection, schedule: Q04DX003 (sc), vehicle: saline
  T/C: 166 % of control
dose: 5.0 mg/kg/injection, schedule: Q## X024 (sc), vehicle: saline
  T/C: 96 % of control
dose: 7.5 mg/kg/injection, schedule: Q01DX005 (oral), vehicle: carboxymethylcellulose (CMC)
  T/C: 94 % of control and 104 % of control
dose: 7.5 mg/kg/injection, schedule: Q## X010 (oral), vehicle: carboxymethylcellulose (CMC)
  T/C: 91 % of control and 95 % of control
dose: 7.5 mg/kg/injection, schedule: Q## X015 (ip), vehicle: saline
  T/C: 108 % of control
dose: 8.4 mg/kg/injection, schedule: Q01DX005 (sc), vehicle: saline
  T/C: 96 % of control
dose: 8.4 mg/kg/injection, schedule: Q01DX008 (sc), vehicle: saline
  T/C: 96 % of control
dose: 8.4 mg/kg/injection, schedule: Q01DX009 (sc), vehicle: saline
  T/C: 100 % of control
dose: 8.4 mg/kg/injection, schedule: Q01DX028 (sc), vehicle: saline
  T/C: 100 % of control
dose: 8.4 mg/kg/injection, schedule: Q04DX003 (sc), vehicle: saline
  T/C: 118 % of control
dose: 9.0 mg/kg/injection, schedule: Q01DX024 (oral), vehicle: carboxymethylcellulose (CMC)
  T/C: 88 % of control and 90 % of control
dose: 10.0 mg/kg/injection, schedule: Q01DX024 (ip), vehicle: saline
  T/C: 94 % of control
dose: 14.0 mg/kg/injection, schedule: Q04DX003 (sc), vehicle: saline
  T/C: 109 % of control
dose: 15.0 mg/kg/injection, schedule: Q01DX005 (ip), vehicle: saline
  T/C: 91 % of control
dose: 15.0 mg/kg/injection, schedule: Q## X010 (ip), vehicle: saline
  T/C: 88 % of control
dose: 15.0 mg/kg/injection, schedule: Q## X010 (oral), vehicle: carboxymethylcellulose (CMC)
  T/C: 97 % of control
dose: 15.0 mg/kg/injection, schedule: Q## X015 (ip), vehicle: saline
  T/C: 88 % of control
dose: 15.0 mg/kg/injection, schedule: Q## X015 (oral), vehicle: carboxymethylcellulose (CMC)
  T/C: 88 % of control and 90 % of control
dose: 18.0 mg/kg/injection, schedule: Q01DX001 (ip), vehicle: saline
  T/C: 123 % of control
dose: 19.0 mg/kg/injection, schedule: Q01DX001 (oral), vehicle: carboxymethylcellulose (CMC)
  T/C: 90 % of control
dose: 23.0 mg/kg/injection, schedule: Q04DX003 (sc), vehicle: saline
  T/C: 103 % of control
dose: 30.0 mg/kg/injection, schedule: Q01DX005 (oral), vehicle: carboxymethylcellulose (CMC)
  T/C: 88 % of control and 90 % of control
dose: 30.0 mg/kg/injection, schedule: Q## X015 (oral), vehicle: carboxymethylcellulose (CMC)
  T/C: 90 % of control
dose: 37.5 mg/kg/injection, schedule: Q01DX001 (ip), vehicle: saline
  T/C: 94 % of control
dose: 39.0 mg/kg/injection, schedule: Q01DX001 (sc), vehicle: saline
  T/C: 96 % of control
dose: 60.0 mg/kg/injection, schedule: Q01DX005 (oral), vehicle: carboxymethylcellulose (CMC)
  T/C: 88 % of control
dose: 65.0 mg/kg/injection, schedule: Q01DX001 (ip), vehicle: saline
  T/C: 88 % of control
dose: 65.0 mg/kg/injection, schedule: Q01DX001 (sc), vehicle: saline
  T/C: 96 % of control

## NC(CSC(c1ccccc1)(c1ccccc1)c1ccccc1)C(=O)O (stereo not drawn)
dose: 7.5 mg/kg/injection, schedule: Q01DX028 (sc), vehicle: saline
  T/C: 102 % of control
dose: 15.0 mg/kg/injection, schedule: Q01DX028 (sc), vehicle: saline
  T/C: 105 % of control
dose: 60.0 mg/kg/injection, schedule: Q01DX028 (sc), vehicle: saline
  T/C: 105 % of control

## NC(Cc1c[nH]c2ccc(N(CCCl)CCCl)cc12)C(=O)O (stereo not drawn)
dose: 0.23 mg/kg/injection, schedule: Q01DX028 (sc), vehicle: acid diluted with saline
  T/C: 235 % of control
dose: 0.39 mg/kg/injection, schedule: Q01DX028 (sc), vehicle: acid diluted with saline
  T/C: 276 % of control
dose: 0.39 mg/kg/injection, schedule: Q01DX028 (sc), vehicle: other
  T/C: 285 % of control
dose: 0.65 mg/kg/injection, schedule: Q01DX028 (sc), vehicle: acid diluted with saline
  T/C: 230 % of control
dose: 0.65 mg/kg/injection, schedule: Q01DX028 (sc), vehicle: methylcellulose (MC)
  T/C: 164 % of control
dose: 0.65 mg/kg/injection, schedule: Q01DX028 (sc), vehicle: other
  T/C: 380 % of control
dose: 1.08 mg/kg/injection, schedule: Q01DX028 (sc), vehicle: methylcellulose (MC)
  T/C: 119 % of control
dose: 1.08 mg/kg/injection, schedule: Q01DX028 (sc), vehicle: other
  T/C: 157 % of control
dose: 1.8 mg/kg/injection, schedule: Q01DX028 (sc), vehicle: acid diluted with saline
  T/C: 107 % of control
dose: 1.8 mg/kg/injection, schedule: Q01DX028 (sc), vehicle: other
  T/C: 114 % of control
dose: 3.0 mg/kg/injection, schedule: Q01DX028 (sc), vehicle: acid diluted with saline
  T/C: 97 % of control
dose: 3.0 mg/kg/injection, schedule: Q01DX028 (sc), vehicle: other
  T/C: 102 % of control
